Consider three molecules from ChEMBL document CHEMBL5291721, “A preclinical secondary pharmacology resource illuminates target-adverse drug reaction associations of marketed drugs” (Nat Commun, 2023).

The target in data set [1] is T1, Thromboxane A2 receptor (Homo sapiens, UniProt P21731).
T1 sequence (P21731 whole entry): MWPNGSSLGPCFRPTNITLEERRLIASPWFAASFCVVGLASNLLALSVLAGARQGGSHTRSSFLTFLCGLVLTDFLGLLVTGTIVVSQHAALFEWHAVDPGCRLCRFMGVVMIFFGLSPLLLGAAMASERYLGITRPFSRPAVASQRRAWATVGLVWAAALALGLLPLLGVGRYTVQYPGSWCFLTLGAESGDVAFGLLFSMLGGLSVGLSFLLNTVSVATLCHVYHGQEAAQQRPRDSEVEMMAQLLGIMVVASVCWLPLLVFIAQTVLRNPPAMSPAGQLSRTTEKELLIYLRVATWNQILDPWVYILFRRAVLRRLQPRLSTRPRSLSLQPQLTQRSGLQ
The class given is functional, cell-based.

Data set [2] has as its target Voltage-gated inwardly rectifying potassium channel KCNH2 (Homo sapiens, UniProt Q12809). Type of data set: functional.
Data set [3] deals with Sodium-dependent dopamine transporter (Homo sapiens, UniProt Q01959).
Data set [4] deals with T2, Muscarinic acetylcholine receptor M2 (Homo sapiens, UniProt P08172).
T2 sequence (P08172 whole entry): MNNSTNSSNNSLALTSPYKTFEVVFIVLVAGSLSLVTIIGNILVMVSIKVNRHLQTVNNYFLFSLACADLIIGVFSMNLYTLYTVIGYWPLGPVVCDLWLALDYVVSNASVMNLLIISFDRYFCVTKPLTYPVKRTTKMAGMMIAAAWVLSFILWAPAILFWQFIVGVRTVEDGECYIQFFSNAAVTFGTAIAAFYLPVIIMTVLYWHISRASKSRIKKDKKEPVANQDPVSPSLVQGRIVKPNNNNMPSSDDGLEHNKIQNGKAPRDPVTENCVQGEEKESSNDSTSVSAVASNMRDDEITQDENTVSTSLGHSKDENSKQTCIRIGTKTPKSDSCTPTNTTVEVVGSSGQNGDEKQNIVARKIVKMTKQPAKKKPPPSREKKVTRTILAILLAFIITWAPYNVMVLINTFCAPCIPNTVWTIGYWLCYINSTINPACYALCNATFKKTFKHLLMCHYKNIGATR

Data set [5] concerns the target 5-hydroxytryptamine receptor 2B (Homo sapiens, UniProt P41595). The class given is functional, cell-based.
Data set [6] deals with Histamine H3 receptor (Homo sapiens, UniProt Q9Y5N1).
In data set [7] the target is T3, Alpha-1A adrenergic receptor (Homo sapiens, UniProt P35348).
T3 sequence (P35348 whole entry): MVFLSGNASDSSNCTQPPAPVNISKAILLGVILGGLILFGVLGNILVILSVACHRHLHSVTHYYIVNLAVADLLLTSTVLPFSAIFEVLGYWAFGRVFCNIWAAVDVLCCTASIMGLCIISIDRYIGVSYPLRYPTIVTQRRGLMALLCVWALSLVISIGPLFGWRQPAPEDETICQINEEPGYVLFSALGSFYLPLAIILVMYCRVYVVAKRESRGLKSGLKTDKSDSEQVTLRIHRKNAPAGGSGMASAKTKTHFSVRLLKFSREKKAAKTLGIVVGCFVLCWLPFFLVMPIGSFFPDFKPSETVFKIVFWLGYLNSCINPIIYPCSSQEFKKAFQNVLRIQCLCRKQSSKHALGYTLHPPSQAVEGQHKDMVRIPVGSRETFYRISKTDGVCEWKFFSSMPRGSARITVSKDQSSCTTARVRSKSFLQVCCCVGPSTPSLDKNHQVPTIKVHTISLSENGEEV
Type of data set: functional, cell-based.

Data set [8] concerns the target T4, Amine oxidase [flavin-containing] A (Homo sapiens, UniProt P21397).
T4 sequence (P21397 whole entry): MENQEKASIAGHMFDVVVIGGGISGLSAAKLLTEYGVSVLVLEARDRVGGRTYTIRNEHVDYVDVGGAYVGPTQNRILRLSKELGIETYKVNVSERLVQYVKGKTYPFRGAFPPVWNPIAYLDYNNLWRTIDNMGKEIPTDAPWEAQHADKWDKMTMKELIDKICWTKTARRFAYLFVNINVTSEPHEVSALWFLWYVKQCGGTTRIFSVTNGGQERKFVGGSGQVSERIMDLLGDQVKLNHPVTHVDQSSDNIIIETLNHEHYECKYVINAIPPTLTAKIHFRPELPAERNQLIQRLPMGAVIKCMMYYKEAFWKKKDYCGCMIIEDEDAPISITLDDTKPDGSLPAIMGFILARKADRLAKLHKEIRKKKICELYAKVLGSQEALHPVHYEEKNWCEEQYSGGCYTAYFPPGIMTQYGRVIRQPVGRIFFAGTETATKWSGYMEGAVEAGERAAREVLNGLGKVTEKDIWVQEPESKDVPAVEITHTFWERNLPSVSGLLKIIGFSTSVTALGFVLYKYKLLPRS
Type of data set: functional.

Data set [9] addresses T5, Progesterone receptor (Homo sapiens, UniProt P06401).
T5 sequence (P06401 whole entry): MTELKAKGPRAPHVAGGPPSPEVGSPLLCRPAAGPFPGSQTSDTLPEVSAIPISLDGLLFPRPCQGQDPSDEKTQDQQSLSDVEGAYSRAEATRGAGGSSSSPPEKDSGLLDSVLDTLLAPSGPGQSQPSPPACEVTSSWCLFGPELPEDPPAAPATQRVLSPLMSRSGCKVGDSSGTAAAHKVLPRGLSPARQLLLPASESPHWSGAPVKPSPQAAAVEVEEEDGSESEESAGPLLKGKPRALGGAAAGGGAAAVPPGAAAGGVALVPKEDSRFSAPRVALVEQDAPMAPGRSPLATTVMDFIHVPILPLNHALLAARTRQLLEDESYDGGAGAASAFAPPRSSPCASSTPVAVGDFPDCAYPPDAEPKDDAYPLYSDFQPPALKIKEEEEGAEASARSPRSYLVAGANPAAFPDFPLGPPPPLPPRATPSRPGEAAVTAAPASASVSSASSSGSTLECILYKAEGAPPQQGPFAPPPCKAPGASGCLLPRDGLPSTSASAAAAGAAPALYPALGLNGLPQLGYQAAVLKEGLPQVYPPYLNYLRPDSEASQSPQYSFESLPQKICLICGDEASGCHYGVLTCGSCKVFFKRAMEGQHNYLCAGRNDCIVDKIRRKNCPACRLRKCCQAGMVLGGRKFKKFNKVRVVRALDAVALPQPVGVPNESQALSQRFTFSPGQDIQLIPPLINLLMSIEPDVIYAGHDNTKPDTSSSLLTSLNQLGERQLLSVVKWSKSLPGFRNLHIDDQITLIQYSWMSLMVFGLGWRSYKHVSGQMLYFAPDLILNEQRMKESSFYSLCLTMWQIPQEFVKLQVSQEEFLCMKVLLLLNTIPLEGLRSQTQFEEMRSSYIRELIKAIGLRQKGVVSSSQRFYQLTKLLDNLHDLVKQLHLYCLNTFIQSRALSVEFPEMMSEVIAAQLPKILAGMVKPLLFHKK
The class given is functional.
Also: assay procedure not described here.

Chain of 5-hydroxytryptamine receptor 2B (P41595 whole entry): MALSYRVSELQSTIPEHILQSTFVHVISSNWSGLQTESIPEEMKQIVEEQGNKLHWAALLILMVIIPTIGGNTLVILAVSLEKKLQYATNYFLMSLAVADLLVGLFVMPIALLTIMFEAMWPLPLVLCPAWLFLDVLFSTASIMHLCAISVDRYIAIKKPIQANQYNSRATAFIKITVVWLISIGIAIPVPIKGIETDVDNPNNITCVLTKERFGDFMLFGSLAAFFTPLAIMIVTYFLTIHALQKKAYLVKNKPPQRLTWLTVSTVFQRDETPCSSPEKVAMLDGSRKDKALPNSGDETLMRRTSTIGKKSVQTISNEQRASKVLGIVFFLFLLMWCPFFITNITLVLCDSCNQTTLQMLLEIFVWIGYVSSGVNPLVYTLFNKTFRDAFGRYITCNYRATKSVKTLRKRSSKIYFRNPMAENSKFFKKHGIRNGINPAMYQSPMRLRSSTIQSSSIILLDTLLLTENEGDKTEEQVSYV
Chain of Sodium-dependent dopamine transporter (Q01959 whole entry): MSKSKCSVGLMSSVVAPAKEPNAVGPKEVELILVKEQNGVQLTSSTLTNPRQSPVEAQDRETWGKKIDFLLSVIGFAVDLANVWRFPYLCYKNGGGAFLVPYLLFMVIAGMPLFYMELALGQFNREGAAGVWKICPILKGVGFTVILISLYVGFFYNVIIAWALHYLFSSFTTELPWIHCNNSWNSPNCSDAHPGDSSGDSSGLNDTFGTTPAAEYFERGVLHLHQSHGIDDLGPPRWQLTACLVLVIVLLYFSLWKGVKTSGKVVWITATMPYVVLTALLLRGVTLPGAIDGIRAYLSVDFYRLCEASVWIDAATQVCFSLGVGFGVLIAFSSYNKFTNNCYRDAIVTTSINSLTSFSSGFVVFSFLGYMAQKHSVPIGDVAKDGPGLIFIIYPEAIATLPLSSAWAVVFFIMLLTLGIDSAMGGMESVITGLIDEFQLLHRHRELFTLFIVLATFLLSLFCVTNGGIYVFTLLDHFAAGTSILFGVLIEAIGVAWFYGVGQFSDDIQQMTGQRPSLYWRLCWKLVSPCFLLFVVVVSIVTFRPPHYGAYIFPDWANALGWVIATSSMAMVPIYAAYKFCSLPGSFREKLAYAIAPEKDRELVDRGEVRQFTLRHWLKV
Chain of Voltage-gated inwardly rectifying potassium channel KCNH2 (Q12809 whole entry): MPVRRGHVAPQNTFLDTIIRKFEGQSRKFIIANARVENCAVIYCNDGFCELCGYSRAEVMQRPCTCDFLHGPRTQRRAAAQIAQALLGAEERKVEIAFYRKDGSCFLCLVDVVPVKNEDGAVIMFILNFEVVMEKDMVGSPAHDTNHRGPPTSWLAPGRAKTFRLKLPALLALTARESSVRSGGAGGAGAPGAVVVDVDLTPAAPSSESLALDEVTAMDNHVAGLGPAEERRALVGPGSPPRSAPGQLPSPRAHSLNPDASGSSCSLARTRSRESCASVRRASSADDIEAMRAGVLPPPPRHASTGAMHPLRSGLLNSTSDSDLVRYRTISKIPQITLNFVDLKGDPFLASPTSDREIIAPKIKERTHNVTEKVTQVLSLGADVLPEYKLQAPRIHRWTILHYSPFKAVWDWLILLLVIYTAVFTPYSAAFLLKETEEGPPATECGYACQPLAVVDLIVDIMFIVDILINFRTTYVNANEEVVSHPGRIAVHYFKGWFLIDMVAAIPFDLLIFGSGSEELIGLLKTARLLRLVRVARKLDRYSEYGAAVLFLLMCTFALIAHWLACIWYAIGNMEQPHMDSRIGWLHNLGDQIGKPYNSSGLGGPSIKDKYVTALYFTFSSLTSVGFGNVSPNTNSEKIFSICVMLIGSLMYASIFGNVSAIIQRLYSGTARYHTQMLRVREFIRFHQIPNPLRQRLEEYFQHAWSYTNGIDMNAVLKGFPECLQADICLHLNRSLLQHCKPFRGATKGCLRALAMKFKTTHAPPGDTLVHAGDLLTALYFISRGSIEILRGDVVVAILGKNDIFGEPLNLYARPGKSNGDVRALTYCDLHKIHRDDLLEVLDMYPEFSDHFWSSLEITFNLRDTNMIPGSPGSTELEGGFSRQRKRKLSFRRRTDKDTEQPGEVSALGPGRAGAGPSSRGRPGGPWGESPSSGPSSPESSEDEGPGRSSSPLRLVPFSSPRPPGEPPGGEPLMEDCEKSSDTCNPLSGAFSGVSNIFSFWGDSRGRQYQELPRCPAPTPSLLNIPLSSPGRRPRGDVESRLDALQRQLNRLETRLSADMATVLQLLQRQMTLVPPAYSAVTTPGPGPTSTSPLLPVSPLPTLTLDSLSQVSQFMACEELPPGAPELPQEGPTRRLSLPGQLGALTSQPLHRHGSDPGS
Chain of Histamine H3 receptor (Q9Y5N1 whole entry): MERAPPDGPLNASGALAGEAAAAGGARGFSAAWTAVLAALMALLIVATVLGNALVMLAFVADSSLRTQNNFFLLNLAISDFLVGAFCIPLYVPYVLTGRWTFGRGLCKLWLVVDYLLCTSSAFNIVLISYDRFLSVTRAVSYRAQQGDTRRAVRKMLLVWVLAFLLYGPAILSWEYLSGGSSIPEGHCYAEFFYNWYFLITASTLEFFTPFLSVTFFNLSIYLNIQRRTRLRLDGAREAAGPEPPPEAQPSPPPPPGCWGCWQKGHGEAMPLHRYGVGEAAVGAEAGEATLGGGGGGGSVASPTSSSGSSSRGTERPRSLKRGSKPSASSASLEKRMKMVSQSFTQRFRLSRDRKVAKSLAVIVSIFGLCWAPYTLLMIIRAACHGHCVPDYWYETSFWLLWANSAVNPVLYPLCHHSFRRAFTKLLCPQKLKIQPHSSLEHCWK

`CN(C)c1ccc(C(=C2C=CC(=[N+](C)C)C=C2)c2ccc(N(C)C)cc2)cc1` [GENTIAN VIOLET]: the AC50 (in general, the concentration at which the activity in the assay is half-maximal) in [1] was 2.03 µM; in data set [2] (read-out: AC50) it was 1 µM; in data set [3], 3.4 µM; in data set [4], 0.478 µM; in [5], above 30 µM; in data set [6] it was 4.71 µM. Besides, the half-maximal activity concentration (AC50) in data set [7] and in [8] was above 30 µM each time.

In the case of HYDROXOCOBALAMIN, the AC50 in data set [2] (human, cellular components) is above 30 µM; in data set [9], above 30 µM.

For the molecule `Nc1ccc(S(N)(=O)=O)cc1` [SULFANILAMIDE], the half-maximal activity concentration (AC50) in data set [1], in data set [3], in [4], in data set [5], in [6] and in data set [7] was above 30 µM each time. Further, in data set [8], the concentration at half-maximal activity (AC50) is above 30 µM.
